Bridge positions count the residues as written; N and C are the ends. Peptide text beside a SMILES is read from it.

What all share (assay type): cell-based
The target in experiment [1] is T1, Kv1.3/L343A (Homo sapiens, UniProt P22001, L343A).
T1 construct: expressed in transfected cells; host or cells: CHO-K1
The experiment in a line: Whole-cell patch clamp, Kv1.3 alanine mutant. How it is done:
(§1) MrVIII inhibits Kv1 channels by stabilizing the voltage sensor in its resting state. […] To investigate this hypothesis, we constructed a series of alanine mutants in the S3-S4 region of the Kv1.3 channel, covering residues I336 to L363, to identify critical interactions between the peptide and the channel (Fig. 6A). […] For the remaining mutants that retained functional current expression, we evaluated the inhibitory activity of 100 nM MrVIII. […] The lack of conserved multiple interaction sites may explain the absence of activity on other Kv subfamily channels (Fig. S3). In summary, this study identified key amino acid residues in the S3-S4 region of the Kv1.3 channel that interact with MrVIII, providing a foundation for further exploration into the peptide's mechanism of action.
(§2) The cDNA of hKv1.1, hKv1.2, hKv1.3, rKv1.4, hKv1.5, mKv1.6, and hKv1.7 were subcloned into mammalian expression vectors pcDNA3.1 or pCMV-blank vectors, as well as other plasmids described previously ([35]). Channel mutants were generated by site-directed mutations. Briefly, the parental channel plasmid was amplified using a pair of oppositely directed primers harboring the designed mutation site, with KOD Fx (TOYOBO Co, Ltd). The resulting PCR mix was treated with FastDigest DpnI (Thermo Fisher Scientific) to remove the methylated template. Ten microliters of the digested product was then used to transform 100 μl E. coli DH5α competent cells. Transformants were randomly picked and sequenced to confirm the presence of the intended mutation.
(§3) CHO-K1 cells were selected for expressing Kv channels due to their lack of endogenous Kv channels, while HEK293 or ND7/23 cells were used for Nav and Cav channel expression. CHO-K1 cells were cultured in a Dulbecco's modified Eagle's medium/Ham's F-12 nutrient mixture (DMEM-F12) medium, and HEK293T and ND7/23 cells in DMEM medium, all supplemented with 10% fetal bovine serum and 1% penicillin-streptomycin (all from Gibco, Thermo Fisher Scientific, Inc) under standard conditions (37 °C, 5% CO2, and saturated humidity). These cell lines were purchased from Stem Cell Bank, Chinese Academy of Sciences. Channel plasmids were cotransfected with pEGFP-N1 (encoding GFP) into the respective cells using lipofectamine 2000, following the manufacturer's instructions (Invitrogen, Thermo Fisher Scientific, Inc.). Nav1.9-GFP plasmid was transfected into ND7/23 using the X-tremeGENE HP DNA Transfection Reagent (Roche). After 4 to 6 h transfection, cells were seeded onto poly-lysine–coated coverslips, and 24 to 36 h later, transfected cells were ready for patch-clamp analysis.
(§4) Patch clamp experiments were conducted using an electrophysiology platform comprising a MultiClamp 700B amplifier and an Axon Digidata 1550 AD/DA convertor (Axon Instruments). Data acquisition was performed with pClamp 10.5 software (Axon Instruments). All experiments were performed at room temperature.
(§5) For Kv current recordings, the bath solution contained (in mM) the following: 140 NaCl, 5 KCl, 1 MgCl2, 2 CaCl2, 10 glucose, and 10 Hepes (pH 7.3, adjusted with NaOH), and the pipette solution contained (in mM) the following: 140 KCl, 2.5 MgCl2, 11 EGTA, and 10 Hepes (pH 7.3, adjusted with KOH). Series resistance was maintained below 10 MΩ and compensated to 80%. Concentration–response curves were fitted by the Hill equation to determine the toxin's potency. Whole cell conductance (G) at each depolarizing voltage (V) was determined using the equation: G = I/(V−Vrev), where I is the current amplitude, and Vrev is the reversal potential. The reversal potential for K^+ current was estimated to be −85.6 mV using the Nernst equation. G-V curves were obtained by plotting the normalized conductance as a function of V and fitted by the Boltzmann equation: y = 1/(1+ exp((Va-V)/k)), which Va is the midpoint voltage, V is the test potential, and k is the slope factor. The steady-state fast inactivation of Kv1.3 was measured using a two-pulses protocol. […]
A general note: Patch clamp records ionic current or voltage across a cell membrane.

Experiment [2] concerns the target T2, Kv1.3/L347A (Homo sapiens, UniProt P22001, L347A).
T2 construct: expressed in transfected cells; host or cells: CHO-K1
Briefly: Whole-cell patch clamp, Kv1.3 alanine mutant. The procedure:
as §1, §2, §3, §4, §5

Experiment [3] has as its target T3, Kv1.7/A256T (Homo sapiens, UniProt Q96RP8, A256T).
T3 construct: expressed in transfected cells; host or cells: CHO-K1
The experiment in a line: Whole-cell patch clamp, Kv1.7 point mutant. An excerpt:
This observation prompted further exploration of the potential function of the homologous residue in the Kv1.7 channel, where the corresponding site is occupied by an alanine.
The cDNA of hKv1.1, hKv1.2, hKv1.3, rKv1.4, hKv1.5, mKv1.6, and hKv1.7 were subcloned into mammalian expression vectors pcDNA3.1 or pCMV-blank vectors, as well as other plasmids described previously ([35]). Channel mutants were generated by site-directed mutations. Briefly, the parental channel plasmid was amplified using a pair of oppositely directed primers harboring the designed mutation site, with KOD Fx (TOYOBO Co, Ltd). […]
CHO-K1 cells were selected for expressing Kv channels due to their lack of endogenous Kv channels, while HEK293 or ND7/23 cells were used for Nav and Cav channel expression. […] After 4 to 6 h transfection, cells were seeded onto poly-lysine–coated coverslips, and 24 to 36 h later, transfected cells were ready for patch-clamp analysis. […]
For Kv current recordings, the bath solution contained (in mM) the following: 140 NaCl, 5 KCl, 1 MgCl2, 2 CaCl2, 10 glucose, and 10 Hepes (pH 7.3, adjusted with NaOH), and the pipette solution contained (in mM) the following: 140 KCl, 2.5 MgCl2, 11 EGTA, and 10 Hepes (pH 7.3, adjusted with KOH). […] The steady-state fast inactivation of Kv1.3 was measured using a two-pulses protocol. […]

Setting [4] is: 100 nM MrVIII on mutant compared with 10 nM on WT Kv1.3, +30 mV, n = 4–7.

T2 sequence (P22001 whole entry L347A): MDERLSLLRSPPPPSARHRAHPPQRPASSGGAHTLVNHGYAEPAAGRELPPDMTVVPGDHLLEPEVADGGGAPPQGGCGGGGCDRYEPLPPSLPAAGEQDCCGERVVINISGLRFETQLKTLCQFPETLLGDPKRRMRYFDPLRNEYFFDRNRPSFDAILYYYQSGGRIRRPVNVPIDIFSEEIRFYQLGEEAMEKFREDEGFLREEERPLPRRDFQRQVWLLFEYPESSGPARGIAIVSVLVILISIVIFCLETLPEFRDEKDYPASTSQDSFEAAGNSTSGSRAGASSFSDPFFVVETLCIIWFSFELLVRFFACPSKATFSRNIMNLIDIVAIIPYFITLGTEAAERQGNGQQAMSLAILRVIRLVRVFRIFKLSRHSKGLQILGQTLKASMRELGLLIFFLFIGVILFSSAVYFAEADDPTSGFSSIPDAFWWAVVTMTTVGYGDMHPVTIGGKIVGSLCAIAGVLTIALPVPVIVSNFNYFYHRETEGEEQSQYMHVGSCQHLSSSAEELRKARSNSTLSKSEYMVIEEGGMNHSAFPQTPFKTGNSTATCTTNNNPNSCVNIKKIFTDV
T1 sequence (P22001 whole entry L343A): as the sequence (P22001 whole entry L347A) above, with L343A, A347L counted along it
T3 sequence (Q96RP8 whole entry A256T): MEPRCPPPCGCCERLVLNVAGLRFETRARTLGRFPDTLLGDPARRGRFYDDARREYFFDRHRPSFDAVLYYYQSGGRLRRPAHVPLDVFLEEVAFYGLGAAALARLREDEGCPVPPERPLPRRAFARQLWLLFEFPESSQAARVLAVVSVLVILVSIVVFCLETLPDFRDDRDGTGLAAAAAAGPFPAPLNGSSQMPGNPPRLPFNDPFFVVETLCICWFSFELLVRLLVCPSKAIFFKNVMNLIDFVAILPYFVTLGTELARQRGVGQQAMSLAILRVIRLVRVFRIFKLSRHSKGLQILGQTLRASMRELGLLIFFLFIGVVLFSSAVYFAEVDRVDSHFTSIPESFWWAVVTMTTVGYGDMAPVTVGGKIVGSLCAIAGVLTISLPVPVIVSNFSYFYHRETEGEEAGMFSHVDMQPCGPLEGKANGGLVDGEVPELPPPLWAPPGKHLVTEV

On to `CC[C@H](C)[C@@H]1NC(=O)[C@H](Cc2ccc(O)cc2)NC(=O)[C@H](CCC(N)=O)NC(=O)[C@@H]2CCCN2C(=O)[C@@H]2CSSC[C@H](NC(=O)[C@H](C)NC(=O)[C@H](CO)NC(=O)[C@H](CCC(=O)O)NC(=O)[C@H](CCC(=O)O)NC(=O)[C@@H](N)[C@@H](C)O)C(=O)NCC(=O)NCC(=O)N[C@@H](Cc3ccccc3)C(=O)N[C@@H](CC(N)=O)C(=O)N[C@@H](C)C(=O)N[C@@H](CCCNC(=N)N)C(=O)N[C@H]3CSSC[C@H](NC1=O)C(=O)N[C@@H](CCCCN)C(=O)NCC(=O)N[C@@H](Cc1c[nH]c4ccccc14)C(=O)N[C@@H](CCCNC(=N)N)C(=O)N[C@@H]([C@@H](C)O)C(=O)N[C@@H](CCCCN)C(=O)N[C@@H](CCCNC(=N)N)C(=O)N[C@H](C(=O)N[C@@H](CC(C)C)C(=O)N[C@@H](CC(N)=O)C(=O)N1CCC[C@H]1C(=O)O)CSSC[C@H](NC(=O)[C@H](CCCCN)NC(=O)[C@H](Cc1c[nH]cn1)NC(=O)[C@H](CC(C)C)NC(=O)[C@@H]1CCCN1C3=O)C(=O)N2` [MrVIII] (H-TEESACGGFNARCPLHKCCPQYICKGWRTKRCLNP-OH; disulfide 6-19, 13-24, 18-32; N-terminus and C-terminus assumed), for which the “decrease of inhibitory potency vs WT Kv1.3, L343A” value in experiment [1] (setting [4]) is “more than 10 fold”. Moreover, the IC50 was 0.135 ± 0.034 µM in experiment [1] (+30 mV, 500 ms, mean ± SD, n = 4–6, SD, read-out: IC50, Kv1.3/L343A current); 0.0857 ± 0.0413 µM in experiment [2] (+30 mV, 500 ms, mean ± SD, n = 4–6, SD, read-out: IC50, Kv1.3/L347A current); 0.138 ± 0.0503 µM in experiment [3] (+30 mV, mean ± SD, n = 6, SD, read-out: IC50, Kv1.7/A256T current (full inhibition)). In experiment [2] (setting [4]), the “decrease of inhibitory potency vs WT Kv1.3, L347A” value was “more than 10 fold”. In addition, in experiment [3] (ratio of IC50 values), the “potency on Kv1.7/A256T weaker than on the Kv1.3 channel” value was “approximately 28 fold”.

For the origin of these results see PMC11984586, “A novel spider toxin as a selective antagonist of the Kv1 subfamily of voltage-gated potassium channels through gating modulation” (The Journal of Biological Chemistry, 2025).
